{
  "source": "patent EP4813993A1",
  "about": "“COMPOUND, PREPARATION METHOD THEREFOR, AND USE THEREOF” (Sichuan Kelun Pharmaceutical Research Institute Co., Ltd., priority 2023, dated 2025)",
  "molecular_target": "T1, Nav1.8 channels (Homo sapiens, UniProt Q9Y5Y9)",
  "T1 construct": "expressed in transfected cells",
  "T1 sequence (Q9Y5Y9 whole entry)": "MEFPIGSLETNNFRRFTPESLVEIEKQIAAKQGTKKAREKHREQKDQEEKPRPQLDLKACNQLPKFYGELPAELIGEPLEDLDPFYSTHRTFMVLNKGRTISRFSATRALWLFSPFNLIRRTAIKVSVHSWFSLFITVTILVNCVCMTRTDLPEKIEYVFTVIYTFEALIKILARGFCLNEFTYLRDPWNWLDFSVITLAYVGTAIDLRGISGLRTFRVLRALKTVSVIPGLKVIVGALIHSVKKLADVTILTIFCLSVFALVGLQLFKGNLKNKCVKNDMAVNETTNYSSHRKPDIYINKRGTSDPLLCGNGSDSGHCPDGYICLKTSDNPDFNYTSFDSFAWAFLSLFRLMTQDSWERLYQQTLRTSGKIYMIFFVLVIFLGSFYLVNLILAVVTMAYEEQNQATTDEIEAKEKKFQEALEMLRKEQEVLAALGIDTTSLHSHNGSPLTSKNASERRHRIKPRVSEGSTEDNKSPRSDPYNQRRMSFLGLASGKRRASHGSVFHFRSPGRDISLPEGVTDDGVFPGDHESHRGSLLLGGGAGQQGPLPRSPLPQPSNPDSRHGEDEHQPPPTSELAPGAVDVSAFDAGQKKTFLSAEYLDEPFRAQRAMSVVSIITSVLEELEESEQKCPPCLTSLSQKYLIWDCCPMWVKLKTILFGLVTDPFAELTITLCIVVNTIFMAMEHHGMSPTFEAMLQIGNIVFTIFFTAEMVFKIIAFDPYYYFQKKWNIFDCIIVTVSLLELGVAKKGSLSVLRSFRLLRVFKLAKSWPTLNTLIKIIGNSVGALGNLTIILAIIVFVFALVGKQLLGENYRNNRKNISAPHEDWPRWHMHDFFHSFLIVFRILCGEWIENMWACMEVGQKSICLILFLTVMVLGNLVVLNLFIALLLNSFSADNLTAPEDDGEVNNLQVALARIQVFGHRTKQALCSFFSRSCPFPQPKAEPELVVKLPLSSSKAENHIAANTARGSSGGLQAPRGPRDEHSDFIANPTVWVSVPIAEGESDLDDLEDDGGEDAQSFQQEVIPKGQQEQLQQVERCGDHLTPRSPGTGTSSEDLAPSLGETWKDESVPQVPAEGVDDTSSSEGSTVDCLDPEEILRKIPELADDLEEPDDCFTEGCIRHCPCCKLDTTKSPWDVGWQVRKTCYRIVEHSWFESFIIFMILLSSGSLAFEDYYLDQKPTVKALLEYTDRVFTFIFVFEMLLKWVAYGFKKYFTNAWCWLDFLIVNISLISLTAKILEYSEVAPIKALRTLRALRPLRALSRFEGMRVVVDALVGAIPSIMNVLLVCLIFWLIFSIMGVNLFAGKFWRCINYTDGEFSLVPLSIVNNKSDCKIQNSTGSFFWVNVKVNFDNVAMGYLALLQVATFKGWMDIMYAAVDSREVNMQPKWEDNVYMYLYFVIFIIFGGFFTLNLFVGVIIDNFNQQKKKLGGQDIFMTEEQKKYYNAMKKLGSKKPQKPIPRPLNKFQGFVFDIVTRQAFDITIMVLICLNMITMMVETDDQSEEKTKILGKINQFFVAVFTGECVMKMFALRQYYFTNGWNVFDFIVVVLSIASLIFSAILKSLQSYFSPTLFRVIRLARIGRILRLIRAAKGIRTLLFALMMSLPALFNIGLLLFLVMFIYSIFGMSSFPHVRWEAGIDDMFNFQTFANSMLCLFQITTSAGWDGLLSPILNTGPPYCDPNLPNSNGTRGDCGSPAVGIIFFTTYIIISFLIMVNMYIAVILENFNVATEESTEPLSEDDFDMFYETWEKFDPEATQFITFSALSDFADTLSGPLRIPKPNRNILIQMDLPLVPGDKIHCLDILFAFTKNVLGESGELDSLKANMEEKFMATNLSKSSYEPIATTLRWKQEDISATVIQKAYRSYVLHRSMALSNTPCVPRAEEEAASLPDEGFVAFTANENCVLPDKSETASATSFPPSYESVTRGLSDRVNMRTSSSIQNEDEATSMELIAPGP",
  "assay": "Manual patch-clamp, current of stably overexpressed Nav1.8 channels (resting state voltage program)",
  "assay_type": "cell-based",
  "conditions": "for inhibition at 0.01 µM / inhibition at 0.001 µM: read-out: Inhibition rate %; for inhibition at 0.001 µM: concentration of 1 nM",
  "experimental": "Experimental Example 1: Effects of test substances on current of stably overexpressed Nav1.8 channels monitored via manual patch-clamp technique\nTest compounds were dissolved in dimethyl sulfoxide (DMSO).\nThe extracellular fluid was as follows: 140 mM NaCl, 3.5 mM KCl, 1 mM MgCl2•6H2O, 2 mM CaCl2•2H2O, 10 mM D-Glucose, 10 mM HEPES, 1.25 mM NaH2PO4•2H2O; the pH was adjusted to 7.4 with NaOH. The intracellular fluid was as follows: 50 mM CsCl, 10 mM NaCl, 10 mM HEPES, 60 mM CsF, 20 mM EGTA; the pH was adjusted to 7.2 with CsOH.\n2. Experimental materials and instruments\n• 1) patch-clamp amplifier: EPC 10 (HEKA) • 2) micromanipulator: MP225 (Sutter Instrument) • 3) inverted microscope: MF53 (Mshot) • 4) micropipette puller: P97 (Sutter Instrument) • 5) capillary glass tube: BF150-86-10 (Sutter Instrument)\n3. Experimental procedures\n• 1) After the compounds were prepared into solutions with specified concentrations, the solutions were sequentially added to the pipeline of the drug delivery system and labeled. • 2) The cell climbing coverslip was placed in the recording chamber, the appropriate cells were selected under the inverted microscope, and the position of the drug delivery tip was adjusted. • 3) A capillary glass tube was pulled into a suitable recording electrode using the micropipette puller, and then the electrode filled with the intracellular fluid was mounted in the microelectrode holder. The micromanipulator was adjusted under the inverted microscope to allow the recording electrode to contact the cell, and negative pressure was applied to the electrode to form a high-resistance seal. At this time, fast capacitance compensation was performed, and then the application of negative pressure was continued to break the cell membrane, forming a whole-cell recording mode. Finally, slow capacitance compensation was performed, and related parameters were recorded. • 4) After the cell current stabilized, administration was started. Each concentration of the drug was applied for five minutes or until the current stabilized before proceeding to monitor the next concentration. The drug solutions were administered via gravity-fed delivery, flowing through the recording chamber to act on the cells in an ascending order of concentration (from low to high). A peristaltic pump was employed for solution exchange in the recording process.\n4 Test voltage program (resting state) and results\nAfter the formation of the whole-cell seal, the cell voltage was clamped at -120 mV, followed by depolarization to 0 mV using a square-wave pulse with a duration of 50 ms to elicit Nav1.8 currents. This procedure was repeated every 20 s to monitor the maximum current induced by the square wave. After the current stabilized, the test compounds were administered. Once the response stabilized, the intensity of the current block was calculated.",
  "data": [
    {"compound": "COc1c(C2CC(C)(C(F)(F)F)SC2C(=O)Nc2cccc(B(O)O)c2)ccc(F)c1F", "note": "(stereo not drawn) [Compound 9, (3-(3-(3,4-difluoro-2-methoxyphenyl)-5-methyl-5-(trifluoromethyl)tetrahydrothiophene-2-carboxamido)phenyl)boronic acid]", "values": [
      {"measurement": "inhibition at 0.01 µM", "setting": "concentration of 10 nM", "value": 84.9, "unit": "%"}
    ]},
    {"compound": "[2H][C@@]1(C(=O)Nc2cccc(B(O)O)c2)S[C@@](C)(C(F)(F)F)C[C@H]1c1ccc(F)c(F)c1OC", "note": "[Compound 10-A]", "values": [
      {"measurement": "inhibition at 0.01 µM", "setting": "concentration of 10 nM", "value": 87.5, "unit": "%"}
    ]},
    {"compound": "COc1c(C2CC(C)(C(F)(F)F)SC2C(=O)Nc2ccc(F)c(B(O)O)c2)ccc(F)c1F", "note": "(stereo not drawn) [Compound 19, (5-(3-(3,4-difluoro-2-methoxyphenyl)-5-methyl-5-(trifluoromethyl)tetrahydrothiophene-2-carboxamido)-2-fluorophenyl)boronic acid]", "values": [
      {"measurement": "IC50", "value": 0.33, "unit": "nM"}
    ]},
    {"compound": "[2H]C1(C(=O)Nc2ccc(F)c(B(O)O)c2)SC(C)(C(F)(F)F)CC1c1ccc(F)c(F)c1OC", "note": "(stereo not drawn) [Compound 20-A, (5-(3-(3,4-difluoro-2-methoxyphenyl)-5-methyl-5-(trifluoromethyl)tetrahydrothiophene-2-carboxamido-2-d)-2-fluorophenyl)boronic acid]", "values": [
      {"measurement": "inhibition at 0.01 µM", "setting": "concentration of 10 nM", "value": 87.9, "unit": "%"}
    ]},
    {"compound": "COc1c(C2CC(C)(C(F)(F)F)SC2C(=O)Nc2ccc3c(c2)B(O)OC3)ccc(F)c1F", "note": "(stereo not drawn) [Compound 31, 3-(3,4-difluoro-2-methoxyphenyl)-N-(1-hydroxy-1,3-dihydrobenzo[c][1,2]oxaborol-6-yl)-5-methyl-5-(trifluoromethyl)tetrahydrothiophene-2-carboxamide]", "values": [
      {"measurement": "inhibition at 0.01 µM", "setting": "concentration of 10 nM", "value": 65, "unit": "%"}
    ]},
    {"compound": "COc1c([C@@H]2C[C@](C)(C(F)(F)F)S[C@H]2C(=O)Nc2ccc3c(c2)B(O)OC3)ccc(F)c1F", "note": "[Compound 31-A, (2R,3S,5R)-3-(3,4-difluoro-2-methoxyphenyl)-N-(1-hydroxy-1,3-dihydrobenzo[c][1,2]oxaborol-6-yl)-5-methyl-5-(trifluoromethyl)tetrahydrothiophene-2-carboxamide]", "values": [
      {"measurement": "inhibition at 0.01 µM", "setting": "concentration of 10 nM", "value": 84.7, "unit": "%"}
    ]},
    {"compound": "COc1c(C2CC(C)(C(F)(F)F)SC2C(=O)Nc2csc(B(O)O)c2)ccc(F)c1F", "note": "(stereo not drawn) [Compound 48, (4-(3-(3,4-difluoro-2-methoxyphenyl)-5-methyl-5-(trifluoromethyl)tetrahydrothiophene-2-carboxamido)thiophen-2-yl)boronic acid]", "values": [
      {"measurement": "inhibition at 0.01 µM", "setting": "concentration of 10 nM", "value": 79.8, "unit": "%"}
    ]},
    {"compound": "COc1c([C@@H]2C[C@](C)(C(F)(F)F)S[C@H]2C(=O)Nc2csc(B(O)O)c2)ccc(F)c1F", "note": "[Compound 48-A, (4-((2R,3S,5R)-3-(3,4-difluoro-2-methoxyphenyl)-5-methyl-5-(trifluoromethyl)tetrahydrothiophene-2-carboxamido)thiophen-2-yl)boronic acid]", "values": [
      {"measurement": "inhibition at 0.01 µM", "setting": "concentration of 10 nM", "value": 91.5, "unit": "%"}
    ]},
    {"compound": "[2H][C@@]1(C(=O)Nc2csc(B(O)O)c2)S[C@@](C)(C(F)(F)F)C[C@H]1c1ccc(F)c(F)c1OC", "note": "[Compound 50-A, (4-((2R,3S,5R)-3-(3,4-difluoro-2-methoxyphenyl)-5-methyl-5-(trifluoromethyl)tetrahydrothiophene-2-carboxamido-2-d)thiophen-2-yl)boronic acid]", "values": [
      {"measurement": "inhibition at 0.01 µM", "setting": "concentration of 10 nM", "value": 80.9, "unit": "%"}
    ]},
    {"compound": "COc1c(C2CC(C)(C(F)(F)F)SC2C(=O)Nc2ccc(B(O)O)cc2)ccc(F)c1F", "note": "(stereo not drawn) [Compound 82, (4-(3-(3,4-difluoro-2-methoxyphenyl)-5-methyl-5-(trifluoromethyl)tetrahydrothiophene-2-carboxamido)phenyl)boronic acid]", "values": [
      {"measurement": "inhibition at 0.01 µM", "setting": "concentration of 10 nM", "value": 81.1, "unit": "%"}
    ]},
    {"compound": "COc1c(C2CC(C)(C(F)(F)F)SC2C(=O)Nc2ccc(B(O)O)c(F)c2)ccc(F)c1F", "note": "(stereo not drawn) [Compound 88, (4-(3-(3,4-difluoro-2-methoxyphenyl)-5-methyl-5-(trifluoromethyl)tetrahydrothiophene-2-carboxamido)-2-fluorophenyl)boronic acid]", "values": [
      {"measurement": "inhibition at 0.01 µM", "setting": "concentration of 10 nM", "value": 95.6, "unit": "%"}
    ]},
    {"compound": "COc1c([C@@H]2C[C@](C)(C(F)(F)F)S[C@H]2C(=O)Nc2ccc(B(O)O)c(F)c2)ccc(F)c1F", "note": "[Compound 88-A, (4-((2R,3S,5R)-3-(3,4-difluoro-2-methoxyphenyl)-5-methyl-5-(trifluoromethyl)tetrahydrothiophene-2-carboxamido)-2-fluorophenyl)boronic acid]", "values": [
      {"measurement": "inhibition at 0.01 µM", "setting": "concentration of 10 nM", "value": 92.7, "unit": "%"}
    ]},
    {"compound": "COc1c(C2CC(C)(C(F)(F)F)SC2C(=O)Nc2ccc(B(O)O)c(Br)c2)ccc(F)c1F", "note": "(stereo not drawn) [Compound 93, (2-bromo-4-(3-(3,4-difluoro-2-methoxyphenyl)-5-methyl-5-(trifluoromethyl)tetrahydrothiophene-2-carboxamido)phenyl)boronic acid]", "values": [
      {"measurement": "inhibition at 0.01 µM", "setting": "concentration of 10 nM", "value": 89.7, "unit": "%"}
    ]},
    {"compound": "COC(=O)c1cc(NC(=O)[C@@H]2S[C@@](C)(C(F)(F)F)C[C@H]2c2ccc(F)c(F)c2OC)ccc1B(O)O", "note": "[Compound 101-A, (4-((2R,3S,5R)-3-(3,4-difluoro-2-methoxyphenyl)-5-methyl-5-(trifluoromethyl)tetrahydrothiophene-2-carboxamido)-2-(methoxycarbonyl)phenyl)boronic acid]", "values": [
      {"measurement": "inhibition at 0.01 µM", "setting": "concentration of 10 nM", "value": 77.9, "unit": "%"}
    ]},
    {"compound": "COc1c(C2CC(C)(C)SC2C(=O)Nc2ccnc(C(N)=O)c2)ccc(F)c1F", "note": "(stereo not drawn) [Compound 134, 4-(3-(3,4-difluoro-2-methoxyphenyl)-5,5-dimethyltetrahydrothiophene-2-carboxamido)picolinamide]", "values": [
      {"measurement": "inhibition at 0.01 µM", "setting": "concentration of 10 nM", "value": 76.5, "unit": "%"}
    ]},
    {"compound": "COc1c(C2CC(C)(C)SC2C(=O)Nc2ccnc(C(N)=O)c2)ccc(F)c1F", "note": "(stereo not drawn) [Compound 134-A, 4-(3-(3,4-difluoro-2-methoxyphenyl)-5,5-dimethyltetrahydrothiophene-2-carboxamido)picolinamide]", "values": [
      {"measurement": "Inhibition rate (%)", "setting": "concentration of 10 nM, 0.01 µM", "value": 87.78, "unit": "%"}
    ]},
    {"compound": "COc1c(C2C(C(=O)Nc3ccnc(C(N)=O)c3)SC(C)(C(F)(F)F)C2C)ccc(F)c1F", "note": "(stereo not drawn) [Compound 136, 4-(3-(3,4-difluoro-2-methoxyphenyl)-4,5-dimethyl-5-(trifluoromethyl)tetrahydrothiophene-2-carboxamido)picolinamide]", "values": [
      {"measurement": "inhibition at 0.001 µM", "value": 61.9, "unit": "%"}
    ]},
    {"compound": "[2H][C@@]1(C(=O)Nc2ccnc(C(N)=O)c2)S[C@@](C)(C(F)(F)F)C[C@H]1c1ccc(F)c(F)c1OC", "note": "[Compound 140-A, 4-((2R,3S,5R)-3-(3,4-difluoro-2-methoxyphenyl)-5-methyl-5-(trifluoromethyl)tetrahydrothiophene-2-carboxamido-2-d)picolinamide]", "values": [
      {"measurement": "inhibition at 0.01 µM", "setting": "concentration of 10 nM", "value": 96.2, "unit": "%"}
    ]},
    {"compound": "COc1c([C@@H]2C[C@](C)(C(F)(F)F)S[C@H]2C(=O)Nc2ccc(F)c(C(N)=O)c2)ccc(F)c1F", "note": "[Compound 146-A, (2R,3S,5R)-N-(3-carbamoyl-4-fluorophenyl)-3-(3,4-difluoro-2-methoxyphenyl)-5-methyl-5-(trifluoromethyl)tetrahydrothiophene-2-carboxamide]", "values": [
      {"measurement": "inhibition at 0.01 µM", "setting": "concentration of 10 nM", "value": 98.3, "unit": "%"}
    ]},
    {"compound": "COc1c(C2CC(C)(C(F)(F)F)SC2C(=O)Nc2cc[nH]c(=O)c2)ccc(F)c1F", "note": "(stereo not drawn) [Compound 170, 3-(3,4-difluoro-2-methoxyphenyl)-5-methyl-N-(2-oxo-1,2-dihydropyridin-4-yl)-5-(trifluoromethyl)tetrahydrothiophene-2-carboxamide]", "values": [
      {"measurement": "inhibition at 0.01 µM", "setting": "concentration of 10 nM", "value": 97.9, "unit": "%"}
    ]},
    {"compound": "COc1c(C2CC(C)(C(F)(F)F)SC2C(=O)Nc2ccn(C)c(=O)c2)ccc(F)c1F", "note": "(stereo not drawn) [Compound 172, 3-(3,4-difluoro-2-methoxyphenyl)-5-methyl-N-(1-methyl-2-oxo-1,2-dihydropyridin-4-yl)-5-(trifluoromethyl)tetrahydrothiophene-2-carboxamide]", "values": [
      {"measurement": "inhibition at 0.01 µM", "setting": "concentration of 10 nM", "value": 86.5, "unit": "%"}
    ]},
    {"compound": "COc1c(C2CC(C)(C(F)(F)F)SC2C(=O)Nc2ccnc(N)c2)ccc(F)c1F", "note": "(stereo not drawn) [Compound 175, (4-(3-(3,4-difluoro-2-methoxyphenyl)-5-methyl-5-(trifluoromethyl)tetrahydrothiophene-2-carboxamido)-2-amino)pyridine]", "values": [
      {"measurement": "inhibition at 0.001 µM", "value": 87.8, "unit": "%"}
    ]},
    {"compound": "COc1c(C2CC(C)(C(F)(F)F)SC2C(=O)Nc2ccc(=O)n(C)c2)ccc(F)c1F", "note": "(stereo not drawn) [Compound 178, 3-(3,4-difluoro-2-methoxyphenyl)-5-methyl-N-(1-methyl-6-oxo-1,6-dihydropyridin-3-yl)-5-(trifluoromethyl)tetrahydrothiophene-2-carboxamide]", "values": [
      {"measurement": "inhibition at 0.01 µM", "setting": "concentration of 10 nM", "value": 86, "unit": "%"}
    ]},
    {"compound": "COc1c([C@@H]2C[C@](C)(C(F)(F)F)S[C@H]2C(=O)Nc2ccc(=O)n(C)c2)ccc(F)c1F", "note": "[Compound 178-A, (2R,3S,5R)-3-(3,4-difluoro-2-methoxyphenyl)-5-methyl-N-(1-methyl-6-oxo-1,6-dihydropyridin-3-yl)-5-(trifluoromethyl)tetrahydrothiophene-2-carboxamide]", "values": [
      {"measurement": "inhibition at 0.01 µM", "setting": "concentration of 10 nM", "value": 90.2, "unit": "%"}
    ]}
  ]
}
